Results as given in US6281342A, “Pradimicin compounds” (Bristol-Myers Squibb Company, priority 1994, dated 2001).
In brackets after ≈: the same amount, converted by molar mass. Like-named read-outs stand apart in the source and are kept apart here.

Assays:
[1] = system: Saccharomyces cerevisiae ATCC 9763; assay: MIC, two-fold agar dilution, S. cerevisiae ATCC 9763; format: cell-based; settings: ATCC9763, YMA pH 7.0, 28° C., 40 hours
Procedure: (§1) Minimum inhibitory concentrations (MICs) of nine 4'-N-substituted pradimicin derivatives were determined by two-fold agar dilution method on phosphate-buffered yeast morphology agar (YMA, pH 7.0, Difco Laboratories). A 5-μl of fungal cell suspension containing 2×10^6 cells/ml (2×10^7 cells/ml for Trichophyton mentagrophytes) were spotted on the surface of the agar plates containing test compound. MICs were recorded after 40-hour incubation at 28° C. except for T. mentagrophytes, which required 60-hour incubation to produce visually evaluable growth on the drug-free control plates and were defined as the lowest antibiotic concentrations showing no growth or less than five discrete colonies per spot.
(§2) Medium: yeast morphology agar + 1/15 M phosphate buffer (pH 7.0)
(§3) Incubation conditions: 28° C., 40 hours (C. albicans ATCC 38247 & T.
(§4) Medium: Yeast morphology agar + 1/15 phosphate buffer (pH 7.0).

[2] = system: Trichophyton mentagrophytes #4329; assay: MIC, two-fold agar dilution, T. mentagrophytes #4329; format: cell-based
Procedure: as §1, §2, §3
(§5) mentagrophytes #4329: 28° C., 60 hours).
as §4

Candida albicans A9540 [3] = assay: animal or person; format: in vivo, male ICR mice infected with Candida albicans A9540
Procedure: (§6) The in vivo therapeutic efficacies of seven 4'-N-substituted pradimicin derivatives, KHM-1, KHM-2, KHM-3, KHM-4, KHM-5, KHM-6 and KHM-7 were evaluated in the mouse infected with Candida albicans A9540 and Aspergillus fumigatusIAM 2034. Groups of five specific-pathogen-free male ICR mice weighing 20-25 g at each dose level were intravenously infected with approximately 10 times the 50% lethal dose of C. albicans A9540 (1×10^6 cells/mouse) or A. fumigatus IAM 2034 (1×10^7 cells/mouse). Immediately after the fungal infection, test compounds dissolved with 10% DMSO in distilled water were intravenously given to the mouse at the dosed volume of 0.1 ml/10 g of body weight. […] Untreated control animals died 7 to 13 days post-infection.

[4] = system: Candida albicans ATCC 38247; assay: MIC, two-fold agar dilution, C. albicans ATCC 38247; format: cell-based; settings: ATCC38247, YMA pH 7.0, 28° C., 60 hours (table footnote)
Procedure: as §1, §2, §3, §5, §4

[5] = system: Aspergillus fumigatus IAM 2034; assay: Therapeutic efficacy in Aspergillus fumigatus systemic infection in mice; format: in vivo, male ICR mice infected with Aspergillus fumigatus IAM 2034; settings: IAM2034, 480 h; for responders at 6.3 mg/kg: 6.3 mg/kg iv; for responders at 6.3 mg/kg / responders at 12.5 mg/kg / responders at 25 mg/kg / responders at 50 mg/kg: 20th day post-infection, read-out: S/T (No. of survivors/tested) (converted); for responders at 12.5 mg/kg: 12.5 mg/kg iv; for responders at 25 mg/kg: 25 mg/kg iv; for responders at 50 mg/kg: 50 mg/kg iv
Procedure: as §6

[6] = system: Aspergillus fumigatus IAM 2034; assay: MIC, two-fold agar dilution, A. fumigatus IAM 2034; format: cell-based; settings: IAM2034
Procedure: as §1, §2, §3, §4

Candida tropicalis 85-8 = assay: MIC, two-fold agar dilution, C. tropicalis 85-8; format: cell-based; settings: 858, YMA pH 7.0, 28° C., 40 hours
Procedure: as §1, §2, §3, §4

[7] = system: Cryptococcus neoformans IAM 4514; assay: MIC, two-fold agar dilution, C. neoformans IAM 4514; format: cell-based; settings: IAM4514
Procedure: as §1, §2, §3, §4

[8] = system: Candida albicans ATCC 32354; assay: MIC, two-fold agar dilution, C. albicans ATCC 32354; format: cell-based; settings: ATCC32354, YMA pH 7.0, 28° C., 40 hours
Procedure: as §1, §2, §3, §4

[9] = system: Cryptococcus neoformans D49; assay: MIC, two-fold agar dilution, C. neoformans D49; format: cell-based; settings: YMA pH 7.0, 28° C., 40 hours
Procedure: as §1, §2, §3, §4

[10] = Water solubility at neutral pH in PBS containing Ca^2+/Mg^2+; format: physicochemical; settings: pbs with ca2+/mg2+; Table 3; water-solubility at neutral pH in phosphate buffered saline containing Ca^2+/Mg^2+
Procedure: The compounds of the invention have good water solubility. Typically, the water solubility is greater than 10 mg/ml when measured at neutral pH in PBS containing Ca^2+ /Mg^2+, preferably greater than 20 mg/ml.
^2) Water-solubility at neutral pH in phosphate buffered saline
containing Ca^2+ /Mg^2+.

[11] = system: Candida albicans IAM 4888; assay: MIC, two-fold agar dilution, C. albicans IAM 4888; format: cell-based; settings: IAM4888, YMA pH 7.0, 28° C., 40 hours
Procedure: as §1, §2, §3, §4

Candida albicans 83-2-14 = assay: MIC, two-fold agar dilution, C. albicans 83-2-14; format: cell-based; settings: 83214, YMA pH 7.0, 28° C., 40 hours
Procedure: as §1, §2, §3, §4

Candida albicans A9540 [12] = assay: MIC, two-fold agar dilution, C. albicans A9540; format: cell-based
Procedure: as §1, §2, §3, §4

[13] = system: Candida tropicalis IFO 10241; assay: MIC, two-fold agar dilution, C. tropicalis IFO 10241; format: cell-based; settings: IFO10241, YMA pH 7.0, 28° C., 40 hours
Procedure: as §1, §2, §3, §4

[14] = Table 3, Trichophyton mentagrophytes #4329, YMA, read-out: MIC TM-4
[15] = Trichophyton mentagrophytes #4329, YMA pH 7.0, 28° C., 60 hours, read-out: MIC
[16] = Candida albicans, A9540, 480 h, Table 2, C. albicans, mice, iv, 95% confidence limits in parentheses, read-out: PD50 (50% protection dose)
[17] = Candida albicans, A9540, in Mus musculus, iv, 480 h, read-out: S/T (No. of survivors/tested)
[18] = Aspergillus fumigatus, A. fumigatus, mice
[19] = Aspergillus fumigatus, Table 2, A. fumigatus, mice, iv, 95% confidence limits in parentheses, read-out: PD50 (50% protection dose)
[20] = Aspergillus fumigatus IAM 2034, YMA pH 7.0, 28° C., 40 hours, read-out: MIC
[21] = Table 3, Aspergillus fumigatus IAM 2034, YMA, read-out: MIC Af-3
[22] = Cryptococcus neoformans IAM 4514, YMA pH 7.0, 28° C., 40 hours, read-out: MIC
[23] = Table 3, Cryptococcus neoformans IAM 4514, YMA, read-out: MIC Cn-2
[24] = Candida albicans A9540, YMA pH 7.0, 28° C., 40 hours, read-out: MIC
[25] = Table 3, Candida albicans A9540, YMA, read-out: MIC Ca-4
[26] = Candida albicans, A9540, 480 h, C. albicans, mice, 6.3 mg/kg iv, 20th day post-infection, read-out: S/T (No. of survivors/tested) (converted)
[27] = Candida albicans, A9540, 480 h, C. albicans, mice, 12.5 mg/kg iv, 20th day post-infection, read-out: S/T (No. of survivors/tested) (converted)
[28] = Candida albicans, A9540, 480 h, C. albicans, mice, 25 mg/kg iv, 20th day post-infection, read-out: S/T (No. of survivors/tested) (converted)
[29] = Candida albicans, A9540, 480 h, C. albicans, mice, 50 mg/kg iv, 20th day post-infection, read-out: S/T (No. of survivors/tested) (converted)

Compound | MIC [1] [µg/mL] | MIC [2, 14] [µg/mL] | MIC [2, 15] [µg/mL] | ED50 (Candida albicans A9540 [3]; [16]) [mg/kg] | MIC [4] [µg/mL] | responders at 6.3 mg/kg [5, 18] [%] | responders at 12.5 mg/kg [5, 18] [%] | responders at 25 mg/kg [5, 18] [%] | MIC [6, 20] [µg/mL] | MIC [6, 21] [µg/mL] | MIC (Candida tropicalis 85-8) [µg/mL] | MIC [7, 22] [µg/mL] | MIC [7, 23] [µg/mL] | MIC [8] [µg/mL] | MIC [9] [µg/mL] | solubility [10] [µg/mL] | MIC (Candida albicans 83-2-14) [µg/mL] | MIC (Candida albicans A9540 [12]; [24]) [µg/mL] | MIC (Candida albicans A9540 [12]; [25]) [µg/mL] | MIC [13] [µg/mL] | also measured
COc1cc(O)c2c(c1)C(=O)c1c(cc3c(c1O)-c1c(cc(C)c(C(=O)N[C@H](C)C(=O)O)c1O)[C@H](O[C@@H]1O[C@H](C)[C@H](N(C)N=O)[C@H](O[C@@H]4OC[C@@H](O)[C@H](O)[C@H]4O)[C@H]1O)[C@H]3O)C2=O [KHM-6, 4'-N-Nitrosopradimicin A] | 3.1 (≈ 3.56 µM) | 3.1 (≈ 3.56 µM) | 3.1 (≈ 3.56 µM) | 27 | 1.6 (≈ 1.84 µM) | 0 | 40 | 0 | 3.1 (≈ 3.56 µM) | 3.1 (≈ 3.56 µM) | 12.5 (≈ 14.4 µM) | 1.6 (≈ 1.84 µM) | 1.6 (≈ 1.84 µM) | 3.1 (≈ 3.56 µM) | 1.6 (≈ 1.84 µM) | > 20000 | 6.3 (≈ 7.24 µM) | 6.3 (≈ 7.24 µM) | 6.3 (≈ 7.24 µM) | 12.5 (≈ 14.4 µM) | responders at 6.3 mg/kg (Candida albicans A9540 [3]; [17]): 0%; responders at 12.5 mg/kg (Candida albicans A9540 [3]; [17]): 20%; responders at 25 mg/kg (Candida albicans A9540 [3]; [17]): 20%; responders at 50 mg/kg (Candida albicans A9540 [3]; [17]): 80%; responders at 50 mg/kg [5, 18]: 40%; ED50 [5, 19]: > 50 mg/kg; ED50 ([5]; Table 3, Aspergillus fumigatus IAM 2034, iv, read-out: PD50 (mice) Af-3): > 50 mg/kg; MIC [11]: 6.3 µg/mL (≈ 7.24 µM)
CN[C@@H]1[C@H](O[C@@H]2OC[C@@H](O)[C@H](O)[C@H]2O)[C@@H](O)[C@H](O[C@H]2c3cc(C)c(C(=O)N[C@H](CO)C(=O)O)c(O)c3-c3c(cc4c(c3O)C(=O)c3cc(OC)cc(O)c3C4=O)[C@@H]2O)O[C@@H]1C [Pradimicin FA-1, reference compound] | 1.6 (≈ 1.87 µM) | 1.6 (≈ 1.87 µM) | 1.6 (≈ 1.87 µM) | 18 | 1.6 (≈ 1.87 µM) | 0 | 20 | 40 | 1.6 (≈ 1.87 µM) | 1.6 (≈ 1.87 µM) | 6.3 (≈ 7.35 µM) | 0.8 (≈ 0.934 µM) | 0.8 (≈ 0.934 µM) | 3.1 (≈ 3.62 µM) | 1.6 (≈ 1.87 µM) | 260 (≈ 303 µM) | 6.3 (≈ 7.35 µM) | 6.3 (≈ 7.35 µM) | 6.3 (≈ 7.35 µM) | 6.3 (≈ 7.35 µM) | responders at 6.3 mg/kg (Candida albicans A9540 [3]; [26]): 0%; responders at 12.5 mg/kg (Candida albicans A9540 [3]; [27]): 20%; responders at 25 mg/kg (Candida albicans A9540 [3]; [28]): 80%; responders at 50 mg/kg (Candida albicans A9540 [3]; [29]): 100%; responders at 50 mg/kg [5, 18]: 80%; ED50 [5, 19]: 27 mg/kg
COc1cc(O)c2c(c1)C(=O)c1c(cc3c(c1O)-c1c(cc(C)c(C(=O)N[C@H](CO)C(=O)O)c1O)[C@H](O[C@@H]1O[C@H](C)[C@H](N)[C@H](O[C@@H]4OC[C@@H](O)[C@H](O)[C@H]4O)[C@H]1O)[C@H]3O)C2=O [Pradimicin FA-2, reference compound] | 1.6 (≈ 1.9 µM) | 3.1 (≈ 3.68 µM) | 3.1 (≈ 3.68 µM) | 7.7 | 1.6 (≈ 1.9 µM) | – | – | – | 1.6 (≈ 1.9 µM) | 1.6 (≈ 1.9 µM) | 6.3 (≈ 7.48 µM) | 1.6 (≈ 1.9 µM) | 1.6 (≈ 1.9 µM) | 3.1 (≈ 3.68 µM) | 1.6 (≈ 1.9 µM) | 20 (≈ 23.7 µM) | 6.3 (≈ 7.48 µM) | 6.3 (≈ 7.48 µM) | 6.3 (≈ 7.48 µM) | 6.3 (≈ 7.48 µM) | ED50 (Candida albicans A9540 [3]; 480 h, Table 3, Candida albicans A9540, iv, read-out: PD50 (mice) Ca-4): 7.4 mg/kg; responders at 6.3 mg/kg (Candida albicans A9540 [3]; [26]): 40%; responders at 12.5 mg/kg (Candida albicans A9540 [3]; [27]): 80%; responders at 25 mg/kg (Candida albicans A9540 [3]; [28]): 100%; responders at 50 mg/kg (Candida albicans A9540 [3]; [29]): 100%
